The values that follow are results of earlier work, collected in patent US20170001953A1, “FUMARATE COMPOUNDS, PHARMACEUTICAL COMPOSITIONS THEREOF, AND METHODS OF USE” (priority 2015, published 2017).

The structures appear in SMILES notation.

As to `COC(=O)/C=C/C(=O)OC` [DMF, dimethylfumarate], the aqueous solubility entry is recorded as “poor”.
